Measurements from PubChem BioAssay (NCI).
Values joined by “and” are separate entries in the source; they are usually repeats but may differ in a detail not shown here. Equal values may be shown once.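 Exposure lasted 48 hours, with cells grown in 96-well plates and compounds tested at five concentrations. The concentration for 50% growth inhibition is given as GI50. The concentration for full growth arrest is given as TGI.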

Columns and labels:
Assay in all cases: NCI tumour cell line growth inhibition, 48 h
[1] = system: CAKI-1 renal
[2] = system: DU-145 prostate
[3] = system: HOP-92 NSCLC
[4] = system: IGROV1 ovarian
[5] = system: KM12 colon
[6] = system: LOX IMVI melanoma
[7] = system: MDA-MB-231 breast
[8] = system: NCI-H23 lung
[9] = system: NCI/ADR-RES ovarian
[10] = system: SK-MEL-2 melanoma

Compound | GI50 [1] | TGI [1] | GI50 [2] | TGI [2] | GI50 [3] | TGI [3] | GI50 [4] | TGI [4] | GI50 [5] | TGI [5] | GI50 [6] | TGI [6] | GI50 [7] | TGI [7] | GI50 [8] | TGI [8] | GI50 [9] | TGI [9] | GI50 [10] | TGI [10]
COc1cc2c(cc1OCCCn1c(-c3ccccn3)nc3ccccc31)N=C[C@@H]1CCCN1C2=O | 2.16 µM | 5.6 µM | 2.72 µM | 6.72 µM | 3.87 µM | 26.6 µM | 1.96 µM | 4.89 µM | 1.9 µM | 4.1 µM | 1.71 µM | 6.16 µM | 2.5 µM | 13.5 µM | 1.08 µM | 3.77 µM | 2.79 µM | 7.31 µM | 1.52 µM | 3.94 µM
NC(CSC1c2ccccc2-c2ccccc21)C(=O)O (stereo unspecified) | – | > 100 µM | – | > 100 µM | – | > 100 µM | – | > 100 µM | – | > 100 µM | – | > 100 µM | – | > 100 µM | – | > 100 µM | – | > 100 µM | – | > 100 µM
Cc1cc(S(=O)(=O)/N=C(/N)Nc2ccccc2O)c(SCc2ccccc2)cc1Cl | 13.5 µM | 32.3 µM | 23.9 µM | 79.5 µM | 15.3 µM | 35.6 µM | 11 µM | 26.9 µM | 12.6 µM | 32.5 µM | 14.6 µM | 33.5 µM | 14.8 µM | 32.2 µM | 17.1 µM | 34.4 µM | 16.7 µM | 36.6 µM | 10.6 µM | 26.2 µM
COc1cc2c(cc1C1COc3cc4occc4cc3C1=O)OCO2 (stereo unspecified) | – | > 100 µM | – | > 100 µM | – | > 100 µM | – | > 100 µM | – | > 100 µM | – | > 100 µM | – | > 100 µM | – | > 100 µM | – | > 100 µM | – | > 100 µM
COc1ccccc1-c1cc(=O)c2cc(C)cnc2[nH]1 | – | > 100 µM | – | > 100 µM | – | > 100 µM | – | > 100 µM | – | > 100 µM | – | > 100 µM | – | > 100 µM | – | > 100 µM | – | 47.1 µM | – | > 100 µM
C[C@@H]1CN(Cc2ccc(F)cc2)[C@@H](C)CN1C(=O)c1cc2c(C(=O)C(=O)N(C)C)cn(C)c2cc1Cl | 16.1 µM | 67.4 µM | 18.8 µM | 53.1 µM | 19.4 µM | 56.5 µM | 19.5 µM | 49.7 µM | 17.3 µM | 37.4 µM | 14.2 µM | 28.4 µM | 14.9 µM | 32.7 µM | 19.6 µM | 57.2 µM | 14.9 µM | 52.7 µM | 17 µM | 36.3 µM
Fc1ccc(/C=N/n2c(-c3ccc(F)c(Cl)c3)nn(CNc3ccccc3C(F)(F)F)c2=S)cc1 | > 100 µM | > 100 µM | > 100 µM | > 100 µM | 17.6 µM | 63.8 µM | 83.6 µM | > 100 µM | 29.3 µM | > 100 µM | 54.9 µM | > 100 µM | 67 µM | > 100 µM | 61.7 µM | > 100 µM | 41.2 µM | > 100 µM | 46.6 µM | > 100 µM
c1cnn2ncc(-c3ccnc(NCCCN4CCOCC4)n3)c2c1 | 6.64 µM | > 25 µM | 7.72 µM | > 25 µM | 5.08 µM | 17.4 µM | 7.51 µM | > 25 µM | 6.85 µM | > 21.4 µM | 5.18 µM | > 25 µM | 8.04 µM | > 25 µM | 7.87 µM | > 25 µM | 6.78 µM | > 25 µM | 5.12 µM | 13.9 µM
NNC(=O)CS(=O)(=O)Nc1ncccn1 | – | > 100 µM | – | > 100 µM | – | > 100 µM | – | > 100 µM | – | > 100 µM | – | > 100 µM | – | > 100 µM | – | > 100 µM | – | > 100 µM | – | > 100 µM
COc1cc(N2C(=O)[C@H](O)C2c2ccc(SC)cc2)cc(OC)c1OC (stereo partly specified) | < 0.01 µM | > 100 µM | 0.0238 µM | > 100 µM | 71.4 µM | > 100 µM | < 0.01 µM | > 100 µM | < 0.01 µM | > 100 µM | < 0.01 µM | > 100 µM | 0.0235 µM | > 100 µM | 0.0191 µM | > 100 µM | 0.0166 µM | > 100 µM | < 0.01 µM | > 100 µM
NC(=O)c1csc(C2OC(CO)C(O)C2O)n1 (stereo unspecified) | 65.8 µM and > 50.1 µM | 1220 µM | – | > 10000 µM | – | 1300 µM | > 72.8 µM | 5650 µM | 70.8 µM | 6070 µM | > 53.2 µM | 7900 µM | > 73.8 µM | > 6480 µM | 52.3 µM | 5250 µM | 47.4 µM | 3010 µM | – | 6440 µM
CC(C)NCCCn1c(Sc2cc3c(cc2I)OCO3)nc2c(N)ncnc21 | 0.527 µM | > 21.1 µM | 0.0473 µM | > 100 µM | 0.289 µM | 1.62 µM | 0.0885 µM | 3.52 µM | 0.0592 µM | 0.755 µM | 0.0787 µM | – | 0.481 µM | 61 µM | 0.0897 µM | > 100 µM | 3.66 µM | > 100 µM | 0.357 µM | > 83.2 µM
OCc1ccc(N2CCCC2c2ccccc2)cc1Cl (stereo unspecified) | 2.83 µM | 17.4 µM | 12.3 µM | 30.8 µM | 2.06 µM | 9.28 µM | 0.187 µM | 0.813 µM | 4.17 µM | 19.4 µM | 9.67 µM | 22.5 µM | 5.58 µM | 24.9 µM | 5.51 µM | 30 µM | 3.54 µM | 17.7 µM | 2.31 µM | 6.97 µM
COC1C=COC2(C)Oc3c(C)c(O)c4c(c3C2=O)/C(=N/C2CCC(O)OC2C)C=C(NC(=O)/C(C)=C\C(=O)C2CC2C(O)C(C)C(O)C(C)C(OC(C)=O)C1C)C4=O (stereo unspecified) | – | 9.92 µM | – | 7.13 µM | – | 5.29 µM | – | 6.13 µM | – | 9.48 µM | – | 3.24 µM | – | 5.69 µM | – | 3.62 µM | – | 50.4 µM | – | 12.4 µM
O=C1c2ccccc2-c2cc([N+](=O)[O-])c([N+](=O)[O-])cc21 | – | 6.17 µM | – | 3.28 µM | – | 3.2 µM | – | 2.84 µM | – | 3.51 µM | – | 2.12 µM | – | 3.33 µM | – | 3.25 µM | – | 9.64 µM | – | 3.66 µM
COc1cccc(OC(=O)c2ccc(C(F)(F)F)nc2Nc2cc(Cl)ccc2C)c1 | 17.6 µM | 36.1 µM | 9.01 µM | > 100 µM | 1.63 µM | 6.98 µM | 8.35 µM | > 100 µM | 20.6 µM | 50 µM | 3.68 µM | 23.8 µM | 2.76 µM | 15.7 µM | 20.2 µM | 49.5 µM | 19.6 µM | > 100 µM | 12.9 µM | 50.2 µM
Nc1nc(OCc2ccccc2)c2[nH]cnc2n1 | 13.2 µM and 13.4 µM | 44.2 µM and 72.4 µM and 43.5 µM | 33.6 µM and 30.1 µM | 266 µM | 7.9 µM and 27.2 µM | 89.2 µM and 239 µM and 183 µM | 25.3 µM and 9.01 µM | 93.3 µM and 271 µM and 34.4 µM | 59.6 µM and 62 µM | 400 µM and 307 µM | 34 µM and 26.2 µM | 273 µM and 115 µM | 36.5 µM and 31.5 µM | 163 µM | 31.6 µM and 46.9 µM | 326 µM and 229 µM | 97.2 µM and 84.9 µM | 414 µM | 25.1 µM | 177 µM
